Several values for one entry are separate records, joined by “and”; a condition that tells them apart may be missing. Identical values can stand only once. Like-named read-outs stand apart in the source and are kept apart here.
Legend:
[1] = molecular target: ALK-wt (Homo sapiens, UniProt Q9UM73); test: Radiometric biochemical kinase assay, ALK-wt
Procedure: (§1) Biochemical kinase assay was performed by methods previously reported. Kinase reactions of all test compounds except 10g were carried out at 10 µM ATP. Kinase reaction of 10g was performed at three different concentrations of ATP (10/50/100 µM).

[2] = molecular target: ALK-L1196M (Homo sapiens, UniProt Q9UM73, L1196M); test: Radiometric biochemical kinase assay, ALK-L1196M; details: radiometric kinase assay, 10 µM ATP
Procedure: as §1

[3] = molecular target: ALK-F1174L (Homo sapiens, UniProt Q9UM73, F1174L); test: Radiometric biochemical kinase assay, ALK-F1174L
Procedure: as §1

[4] = molecular target: ALK-T1151-L1152insT (Homo sapiens, UniProt Q9UM73, INS1151T); test: Radiometric biochemical kinase assay, ALK-T1151-L1152insT
Procedure: as §1

[5] = molecular target: ROS1 (Homo sapiens, UniProt P08922); test: Biochemical kinase assay, ROS1
Procedure: as §1

[6] = molecular target: c-Met (Homo sapiens, UniProt P08581); test: Biochemical kinase assay, c-Met
Procedure: as §1

[7] = molecular target: c-Src (Homo sapiens, UniProt P12931); test: Biochemical kinase assay, c-Src
Procedure: as §1

[8] = molecular target: Lyn (Homo sapiens, UniProt P07948); test: Biochemical kinase assay, Lyn
Procedure: as §1

[9] = test system: H2228 (EML4-ALK) cells; test: Anti-proliferation assay (CTG), H2228; format: cell-based; details: Homo sapiens, NCI-H2228, 72 h, mean ± SD of three independent experiments
Procedure: (§2) ALK wt-TEL, ALK L1196M-TEL transformed Ba/F3 and H2228 cell lines were cultured in RPMI1640 (Welgene, # LM011-01). […] Parental Ba/F3 cells were cultured in RPMI1640 media supplemented with 10% foetal bovine serum and 1% penicillin/streptomycin solution in the presence of IL-3. The cells were maintained in a humidified atmosphere containing 5% CO2 at 37 °C.
(§3) Cells (ALK wt-TEL, ALK L1196M-TEL and Parental Ba/F3: 1 × 10^4, H2228: 5 × 10^3) were plated in 96 well tissue culture plates. Each compound was added to each well at 10 dose points of three-fold serial dilution in DMSO. After treatment with each compound for 72 h, CTG assay solution (Promega, # G7572) was added to each well.

[10] = test system: ALK wt-TEL Ba/F3 cells; test: Anti-proliferation assay (CTG), ALK wt-TEL Ba/F3; format: cell-based; details: Mus musculus, BaF3
Procedure: as §2, §3

[11] = test system: ALK L1196M-TEL Ba/F3 cells; test: Anti-proliferation assay (CTG), ALK L1196M-TEL Ba/F3; format: cell-based
Procedure: as §2, §3

[12] = test system: ALK wt-TEL Ba/F3 cells; test: Apoptosis analysis (annexin V-FITC/PI, FACS), ALK wt-TEL Ba/F3; format: cell-based; details: ALK wt-TEL Ba/F3, 24 h, in words
Procedure: (§4) After 24–48 h following compound treatment, cells were harvested and stained with annexin V (1:500 diluted in annexin V buffer) for 30 min and PI (1:200) solution for 30 min. 1 × 10^6 cells were analysed using flow cytometric analysis. For the cell cycle arrest analysis, cells were harvested by trypsinisation and fixed with 70% ethanol overnight at −20 °C. The next day, cells were harvested and washed with cold DPBS at 500 × g.

[13] = test system: ALK L1196M-TEL Ba/F3 cells; test: Apoptosis analysis (annexin V-FITC/PI, FACS), ALK L1196M-TEL Ba/F3; format: cell-based
Procedure: as §4

[14] = test system: H2228 cells; test: Apoptosis analysis (annexin V-FITC/PI, FACS), H2228; format: cell-based; details: H2228, 48 h, in words
Procedure: as §4

[15] = test system: H2228 cells; test: Cell cycle arrest analysis (PI, FACS), H2228; format: cell-based; details: H2228, 1 µM, 24 h, in words
Procedure: After 24–48 h following compound treatment, cells were harvested and stained with annexin V (1:500 diluted in annexin V buffer) for 30 min and PI (1:200) solution for 30 min. 1 × 10^6 cells were analysed using flow cytometric analysis. For the cell cycle arrest analysis, cells were harvested by trypsinisation and fixed with 70% ethanol overnight at −20 °C. The next day, cells were harvested and washed with cold DPBS at 500 × g. The cells were suspended in RNase/PI solution (Cell Signalling Technologies, # 4087).

[16] = test system: ALK autophosphorylation and STAT3, ERK, PLC-gamma phosphorylation in ALK wt-TEL Ba/F3, ALK L1196M-TEL Ba/F3 and H2228 cell lines; test: Western blot of ALK autophosphorylation and downstream signalling; format: cell-based; details: in words
Procedure: (§5) Cells were harvested and lysed using IP buffer containing 50 mM HEPES (pH 7.4), 1% Triton X-100, 2 mM EDTA, 150 mM NaCl, 2.5 mM NaF, 5 mM Na3VO4, protease inhibitor cocktail tablet (Roche, # 11–878-580–001). The protein concentration was determined by Bradford assay. Proteins were separated using SDS-PAGE and transferred onto NC membrane. The membranes were blocked using 5% skim milk in TBS-T buffer. The rabbit polyclonal antibody against phospho-ALK (Tyr1604, # 3341), phospho-ERK1/2 (Thr202/Tyr204, # 8544), phospho- PLC-gamma (Tyr783, # 14008), phospho-STAT3 (Tyr705, # 4074) and cleaved caspase3 (# 9661) were purchased from Cell Signalling Technologies, and PARP1/2 (H-250, # sc-7150) and anti-β-actin (# sc-47778) antibody was obtained from Santa Cruz Biotechnology. All primary antibodies were diluted in TBS-T at 1:1000. Each primary antibody was incubated overnight at 4 °C, followed by the secondary antibody treatment for 1 h at room temperature. Secondary antibodies were purchased from genDEPOT. Proteins were detected using ECL substrate, and then exposed to X-ray film.

[17] = test system: cleaved PARP and cleaved caspase-3 in ALK wt-TEL and ALK L1196M-TEL Ba/F3 cells; test: Western blot of apoptosis markers; format: cell-based; details: 36 h, in words
Procedure: as §5

Sequence of ALK-wt (Q9UM73 19-1620): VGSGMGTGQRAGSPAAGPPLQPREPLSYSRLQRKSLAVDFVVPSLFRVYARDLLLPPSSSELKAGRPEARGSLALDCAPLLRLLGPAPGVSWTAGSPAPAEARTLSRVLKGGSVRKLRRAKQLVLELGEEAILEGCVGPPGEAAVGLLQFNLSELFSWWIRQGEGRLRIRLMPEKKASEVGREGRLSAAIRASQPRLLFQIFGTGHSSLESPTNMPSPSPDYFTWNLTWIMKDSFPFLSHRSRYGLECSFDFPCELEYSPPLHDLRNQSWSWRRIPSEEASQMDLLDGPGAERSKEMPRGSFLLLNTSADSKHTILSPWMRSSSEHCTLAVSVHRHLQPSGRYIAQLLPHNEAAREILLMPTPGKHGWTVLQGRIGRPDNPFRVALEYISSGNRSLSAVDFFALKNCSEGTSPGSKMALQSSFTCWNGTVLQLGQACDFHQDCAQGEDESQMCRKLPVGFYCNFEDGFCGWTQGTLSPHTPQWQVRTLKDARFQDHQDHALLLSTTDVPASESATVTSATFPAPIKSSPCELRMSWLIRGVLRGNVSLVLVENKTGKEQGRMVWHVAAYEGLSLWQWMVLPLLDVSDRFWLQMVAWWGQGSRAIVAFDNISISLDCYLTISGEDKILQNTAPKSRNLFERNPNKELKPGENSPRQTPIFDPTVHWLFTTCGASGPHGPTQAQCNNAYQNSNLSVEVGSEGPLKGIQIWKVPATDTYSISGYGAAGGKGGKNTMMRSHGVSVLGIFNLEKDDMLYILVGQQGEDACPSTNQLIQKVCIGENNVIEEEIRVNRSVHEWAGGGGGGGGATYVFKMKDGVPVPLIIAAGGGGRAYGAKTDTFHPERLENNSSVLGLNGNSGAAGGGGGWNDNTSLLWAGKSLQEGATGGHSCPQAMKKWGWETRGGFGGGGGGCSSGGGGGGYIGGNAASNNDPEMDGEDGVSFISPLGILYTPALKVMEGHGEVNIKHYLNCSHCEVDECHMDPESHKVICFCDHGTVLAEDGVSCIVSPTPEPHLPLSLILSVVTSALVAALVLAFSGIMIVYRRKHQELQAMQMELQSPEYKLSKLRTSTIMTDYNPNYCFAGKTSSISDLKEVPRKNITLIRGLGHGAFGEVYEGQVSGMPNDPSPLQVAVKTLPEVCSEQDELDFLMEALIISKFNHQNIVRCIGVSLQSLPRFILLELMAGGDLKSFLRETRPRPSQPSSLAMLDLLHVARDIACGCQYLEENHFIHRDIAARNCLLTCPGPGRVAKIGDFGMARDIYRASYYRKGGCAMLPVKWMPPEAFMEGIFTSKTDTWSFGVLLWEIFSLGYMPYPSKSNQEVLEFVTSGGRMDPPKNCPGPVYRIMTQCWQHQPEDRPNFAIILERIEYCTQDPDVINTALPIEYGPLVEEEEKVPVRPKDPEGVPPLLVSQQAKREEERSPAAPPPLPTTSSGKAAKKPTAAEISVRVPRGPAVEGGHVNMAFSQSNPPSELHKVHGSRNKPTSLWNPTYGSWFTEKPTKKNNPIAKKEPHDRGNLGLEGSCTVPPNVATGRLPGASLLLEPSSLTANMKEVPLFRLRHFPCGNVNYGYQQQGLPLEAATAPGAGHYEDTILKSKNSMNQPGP
Sequence of c-Met (P08581 25-1390): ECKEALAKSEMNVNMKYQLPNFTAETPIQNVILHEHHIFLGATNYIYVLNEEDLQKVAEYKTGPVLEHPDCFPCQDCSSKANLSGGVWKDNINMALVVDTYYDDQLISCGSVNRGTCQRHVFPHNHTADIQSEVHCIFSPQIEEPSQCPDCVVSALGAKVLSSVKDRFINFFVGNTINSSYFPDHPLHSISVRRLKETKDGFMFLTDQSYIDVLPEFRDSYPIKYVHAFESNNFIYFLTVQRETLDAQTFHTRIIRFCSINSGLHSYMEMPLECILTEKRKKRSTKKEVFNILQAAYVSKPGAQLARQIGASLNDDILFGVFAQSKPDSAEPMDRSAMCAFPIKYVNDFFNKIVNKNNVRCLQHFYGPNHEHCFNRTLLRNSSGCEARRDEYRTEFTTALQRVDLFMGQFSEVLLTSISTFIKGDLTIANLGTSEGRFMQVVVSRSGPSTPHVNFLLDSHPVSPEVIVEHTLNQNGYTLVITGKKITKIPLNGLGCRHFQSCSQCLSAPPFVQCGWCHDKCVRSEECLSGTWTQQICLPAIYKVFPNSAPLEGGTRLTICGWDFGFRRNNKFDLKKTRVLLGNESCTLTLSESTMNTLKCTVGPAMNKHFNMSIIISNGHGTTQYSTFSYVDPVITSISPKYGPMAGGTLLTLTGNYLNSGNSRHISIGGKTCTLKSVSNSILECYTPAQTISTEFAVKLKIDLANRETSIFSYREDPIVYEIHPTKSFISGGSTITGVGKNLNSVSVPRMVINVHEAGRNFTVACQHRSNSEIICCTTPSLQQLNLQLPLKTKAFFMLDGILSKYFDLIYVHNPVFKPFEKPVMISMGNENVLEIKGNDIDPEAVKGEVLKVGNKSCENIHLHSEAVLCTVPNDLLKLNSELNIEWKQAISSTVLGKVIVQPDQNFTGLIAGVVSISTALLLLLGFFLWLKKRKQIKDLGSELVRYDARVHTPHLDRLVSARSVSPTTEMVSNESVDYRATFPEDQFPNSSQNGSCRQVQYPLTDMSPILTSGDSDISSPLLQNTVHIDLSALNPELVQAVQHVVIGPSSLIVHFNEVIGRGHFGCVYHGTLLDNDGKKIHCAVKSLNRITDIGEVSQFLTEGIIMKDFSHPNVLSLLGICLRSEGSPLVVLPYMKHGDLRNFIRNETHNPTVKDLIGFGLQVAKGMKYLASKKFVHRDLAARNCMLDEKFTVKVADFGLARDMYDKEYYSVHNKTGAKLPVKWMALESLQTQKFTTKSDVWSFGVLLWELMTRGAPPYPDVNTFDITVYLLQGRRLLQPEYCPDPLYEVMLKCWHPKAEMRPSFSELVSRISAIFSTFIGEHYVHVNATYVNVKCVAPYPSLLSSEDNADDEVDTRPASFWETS
Sequence of ALK-F1174L (Q9UM73 19-1620 F1174L): as the sequence (Q9UM73 19-1620) above, with F1156L counted along it
Sequence of ALK-T1151-L1152insT (Q9UM73 with tags, fused parts or gaps INS1151T limits assumed): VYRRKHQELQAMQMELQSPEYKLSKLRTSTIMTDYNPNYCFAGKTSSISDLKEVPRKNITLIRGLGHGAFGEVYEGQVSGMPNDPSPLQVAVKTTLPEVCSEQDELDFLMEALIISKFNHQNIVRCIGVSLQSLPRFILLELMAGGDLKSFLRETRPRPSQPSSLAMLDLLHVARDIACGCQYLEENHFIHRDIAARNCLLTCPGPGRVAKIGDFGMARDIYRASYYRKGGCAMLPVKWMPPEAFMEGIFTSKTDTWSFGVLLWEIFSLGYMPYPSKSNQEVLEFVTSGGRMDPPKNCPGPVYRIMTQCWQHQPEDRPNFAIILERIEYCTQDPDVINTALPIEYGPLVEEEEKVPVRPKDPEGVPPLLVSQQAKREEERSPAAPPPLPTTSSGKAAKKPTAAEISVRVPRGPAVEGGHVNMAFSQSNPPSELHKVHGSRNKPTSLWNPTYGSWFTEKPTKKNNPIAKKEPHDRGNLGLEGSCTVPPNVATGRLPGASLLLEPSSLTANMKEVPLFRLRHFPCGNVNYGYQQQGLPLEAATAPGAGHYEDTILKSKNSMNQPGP
Sequence of c-Src (P12931 whole entry): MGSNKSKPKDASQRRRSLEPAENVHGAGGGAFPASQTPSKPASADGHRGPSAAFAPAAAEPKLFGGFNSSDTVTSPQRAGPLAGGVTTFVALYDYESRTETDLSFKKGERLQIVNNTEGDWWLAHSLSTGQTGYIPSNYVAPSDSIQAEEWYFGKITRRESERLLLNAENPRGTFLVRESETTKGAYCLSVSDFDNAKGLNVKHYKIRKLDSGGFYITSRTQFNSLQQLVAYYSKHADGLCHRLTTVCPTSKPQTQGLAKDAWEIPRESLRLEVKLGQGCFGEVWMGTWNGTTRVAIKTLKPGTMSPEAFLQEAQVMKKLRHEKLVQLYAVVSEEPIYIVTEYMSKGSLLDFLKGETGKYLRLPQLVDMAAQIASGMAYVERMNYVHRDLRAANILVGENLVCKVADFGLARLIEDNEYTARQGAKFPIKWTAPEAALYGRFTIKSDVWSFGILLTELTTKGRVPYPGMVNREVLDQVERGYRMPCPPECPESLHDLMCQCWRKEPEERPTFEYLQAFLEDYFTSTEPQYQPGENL
Sequence of ALK-L1196M (Q9UM73 19-1620 L1196M): as the sequence (Q9UM73 19-1620) above, with L1178M counted along it
Sequence of Lyn (P07948 whole entry): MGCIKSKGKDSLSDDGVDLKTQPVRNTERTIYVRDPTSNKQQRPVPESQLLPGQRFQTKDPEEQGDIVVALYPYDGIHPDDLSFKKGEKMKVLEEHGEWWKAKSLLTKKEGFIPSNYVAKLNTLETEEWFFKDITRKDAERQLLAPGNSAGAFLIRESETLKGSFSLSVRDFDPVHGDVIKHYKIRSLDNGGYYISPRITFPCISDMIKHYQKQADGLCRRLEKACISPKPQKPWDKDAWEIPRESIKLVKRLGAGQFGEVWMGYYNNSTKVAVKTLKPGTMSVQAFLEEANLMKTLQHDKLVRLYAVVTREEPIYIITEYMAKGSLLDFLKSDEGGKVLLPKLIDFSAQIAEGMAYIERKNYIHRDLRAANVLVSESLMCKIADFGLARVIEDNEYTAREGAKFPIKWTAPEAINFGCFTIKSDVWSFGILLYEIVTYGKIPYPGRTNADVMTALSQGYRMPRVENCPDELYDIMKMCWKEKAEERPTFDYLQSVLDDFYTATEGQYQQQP

SMILES: CN1CCN(c2ccc(C(=O)Nc3n[nH]c4ncc(S(=O)(=O)c5cccc(F)c5)cc34)cc2)CC1 [10g, N-(5-((3-Fluorophenyl)sulfonyl)-1H-pyrazolo[3,4-b]pyridin-3-yl)-4–(4-methylpiperazin-1-yl)benzamide]
- change in IC50 against ALK-wt on 10-fold increase in ATP concentration ([1]; 10 vs 100 µM ATP): 50 fold
- IC50 ([1]; IC50 ALK-wt [ATP](50 μM), 50 μM ATP): 17.3 nM
- IC50 ([1]; IC50 ALK-wt [ATP](100 μM), 100 μM ATP): 24 nM and 24.9 nM
- IC50 ([1]; radiometric kinase assay, 10 µM ATP, read-out: IC50 ALK-wt): < 0.5 nM
- IC50 [2]: < 0.5 nM
- IC50 [3]: 8.17 nM
- IC50 [4]: 6.19 nM
- IC50 [5]: < 1 nM
- selectivity, more potent against ALK-wt than c-Met ([6]; ALK-wt vs c-Met IC50): over 7000 fold
- IC50 ([6]; biochemical kinase assay): 3780 nM
- IC50 [7]: 7 nM
- IC50 [8]: 33 nM
- GI50 [9]: 219 ± 50 nM
- GI50 ([10]; 72 h, CTG, mean ± SD of three independent experiments, read-out: GI50 Ba/F3 cell lines ALK wt-TEL): 205 ± 60 nM
- GI50 ([10]; stated in text for both ALK-driven Ba/F3 lines (ALK wt-TEL and ALK L1196M-TEL), read-out: GI50 ALK-driven Ba/F3 cells): < 205 nM
- GI50 ([11]; Mus musculus, BaF3, 72 h, CTG, mean ± SD of three independent experiments, read-out: GI50 Ba/F3 cell lines ALKL1196M-TEL): 129 ± 20 nM
- differential cytotoxicity against ALK-L1196M Ba/F3 cells vs. parental Ba/F3 cells compared with crizotinib ([11]; in words): much more favourable differential cytotoxicity
- number of apoptotic cells (FACS) [12]: increases the number of apoptotic cells in a dose-dependent manner
- number of apoptotic cells (FACS) ([13]; ALK L1196M-TEL Ba/F3, 24 h, in words): increases the number of apoptotic cells in a dose-dependent manner
- apoptosis induction compared with crizotinib ([13]; ALK L1196M-TEL Ba/F3, in words): more effectively than does crizotinib
- apoptosis induction (FACS) [14]: induces apoptosis in H2228 cells in a dose dependent fashion
- cell cycle arrest [15]: significant enhancement of G1-S arrest
- ALK autophosphorylation (western blot) ([16]; 1 and 10 µM, 2 h, ALK wt-TEL Ba/F3, ALK L1196M-TEL Ba/F3 and H2228 cell lines): effectively attenuates
- phosphorylation levels of STAT3, ERK and PLC-gamma (western blot) ([16]; 2 h, dose-dependent): moderately suppressed
- inhibition of ALK autophosphorylation compared with crizotinib ([16]; ALK L1196M-TEL Ba/F3 cells): more effective than crizotinib
- levels of cleaved PARP and cleaved caspase-3 (western blot) [17]: increases in the levels of cleaved PARP and cleaved caspase-3

From publication PMC6713165, “Identification of 1H-pyrazolo[3,4-b]pyridine derivatives as potent ALK-L1196M inhibitors” (Journal of Enzyme Inhibition and Medicinal Chemistry, 2019)
